Measurements reported in article PMC4574636 (Biochemical pharmacology, 2015).
Like-named read-outs stand apart in the source and are kept apart here. Each block holds one molecule with its values, some of them ahead of it.

Experiments:
aldehyde oxidase (AOX) [1] = molecular target: T1, aldehyde oxidase (AOX) (Homo sapiens, UniProt Q06278); assay: Metabolism kinetics of DACA and phthalazine in human cytosol
T1 sequence (Q06278 1-1338): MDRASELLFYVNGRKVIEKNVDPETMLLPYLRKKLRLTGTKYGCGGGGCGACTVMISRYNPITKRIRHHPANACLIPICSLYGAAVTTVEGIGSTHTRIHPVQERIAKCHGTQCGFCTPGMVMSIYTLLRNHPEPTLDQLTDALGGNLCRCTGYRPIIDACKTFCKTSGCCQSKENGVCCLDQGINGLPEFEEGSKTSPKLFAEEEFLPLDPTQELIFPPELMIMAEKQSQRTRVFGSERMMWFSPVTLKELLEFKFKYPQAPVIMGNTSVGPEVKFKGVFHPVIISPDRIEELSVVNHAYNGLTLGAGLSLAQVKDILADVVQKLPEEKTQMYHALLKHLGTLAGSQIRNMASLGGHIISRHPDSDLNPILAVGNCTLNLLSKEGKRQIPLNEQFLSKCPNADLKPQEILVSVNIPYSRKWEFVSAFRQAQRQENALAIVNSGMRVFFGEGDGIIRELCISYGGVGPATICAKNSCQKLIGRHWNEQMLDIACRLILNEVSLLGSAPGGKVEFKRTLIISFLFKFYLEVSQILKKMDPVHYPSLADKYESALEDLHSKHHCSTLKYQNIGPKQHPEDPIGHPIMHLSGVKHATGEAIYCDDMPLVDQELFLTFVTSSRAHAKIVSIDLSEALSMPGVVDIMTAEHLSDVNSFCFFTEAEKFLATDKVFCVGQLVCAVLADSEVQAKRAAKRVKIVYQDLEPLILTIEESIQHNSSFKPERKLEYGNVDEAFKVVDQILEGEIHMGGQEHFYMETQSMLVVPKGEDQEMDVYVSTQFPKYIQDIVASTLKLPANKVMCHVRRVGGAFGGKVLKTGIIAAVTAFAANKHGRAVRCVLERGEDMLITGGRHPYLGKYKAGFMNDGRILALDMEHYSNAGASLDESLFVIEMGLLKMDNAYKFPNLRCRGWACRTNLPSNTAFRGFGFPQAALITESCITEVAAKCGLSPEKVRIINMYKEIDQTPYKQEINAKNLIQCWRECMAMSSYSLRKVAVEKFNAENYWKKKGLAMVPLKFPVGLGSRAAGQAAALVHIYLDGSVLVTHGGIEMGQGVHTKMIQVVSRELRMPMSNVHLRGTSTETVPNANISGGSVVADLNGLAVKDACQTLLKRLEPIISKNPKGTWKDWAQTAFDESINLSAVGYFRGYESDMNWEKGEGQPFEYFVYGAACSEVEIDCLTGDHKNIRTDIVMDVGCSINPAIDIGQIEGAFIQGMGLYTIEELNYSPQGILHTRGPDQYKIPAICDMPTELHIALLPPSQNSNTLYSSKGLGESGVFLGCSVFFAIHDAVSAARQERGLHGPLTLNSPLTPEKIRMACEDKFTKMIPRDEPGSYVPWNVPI

aldehyde oxidase (AOX) [2] = molecular target: T1, aldehyde oxidase (AOX)
aldehyde oxidase (AOX) [3] = assay: Metabolism kinetics of DACA and phthalazine in rabbit cytosol; settings: for kcat: rabbit cytosol
aldehyde oxidase (AOX) [4] = system: aldehyde oxidase (AOX)
[5] = substrate: CN(Cc1cnc2nc(N)nc(N)c2n1)c1ccc(C(=O)N[C@@H](CCC(=O)O)C(=O)O)cc1
[6] = substrate: c1ccc2cnncc2c1; assay: cells, lysate or membranes named; settings: other: human cytosol; unit not given

- kcat (aldehyde oxidase (AOX) [1]): 2.22 s⁻¹
- Km (aldehyde oxidase (AOX) [2]): 7 µM
- kcat (aldehyde oxidase (AOX) [3]): 182 min⁻¹
- Km (aldehyde oxidase (AOX) [4]): 2 µM
Molecule: CN(C)CCNC(=O)c1cccc2cc3ccccc3nc12 [DACA]

- Km (aldehyde oxidase (AOX) [3]; New Zealand, rabbit, cytosol): 23 µM
- kcat (aldehyde oxidase (AOX) [3]): 16,000 min^−1
Molecule: c1ccc2cnncc2c1 [phthalazine]

B1: AOX1 (Macaca mulatta) (protein)
chain: MDRASELLFYVNGRKVIEKNVDPETMLLPYLRKKLRLTGTKYGCGGGGCGACTVMISRYNPITNRIRHHPANACLIPICSLYGTAVTTVEGIGSTHTRIHPVQERIAKCHGTQCGFCTPGMVMSIYTLLRNHPEPTLDQLTDALGGNLCRCTGYRPIIDACKTFCETSGCCQSKENGVCCLDQGINGLPEFEEGSKTSPKLFAEEEFLPLDPTQELIFPPELMIMAEKQPQRTRVFGSERMMWFSPVTLKELLEFKFKYPQAPVIMGNTSVGPQVKFKGVFHPVIISPDRIEELSVVNRTHNGLTLGAGLSLAQVKDILADVVQKLPEEKTQTYHALLKHLGTLAGSQIRNMASLGGHIISRHPDSDLNPILAVGNCTLNLLSKEGKRQIPLNEQFLSKCPNADLKPQEILVSVNIPYSRKLEFVSAFRQAQRQENALAIVNSGMRVFFGEGHGIIRELSISYGGVGPATICAKNSCQKLIGRHWNEEMLDTACRLVLEEVSLSGSAPGGKVEFKRTLIISFLFKFYLEVSQILKKMDPIHYPSLADKYESALEDLHSKHHCSTLKYQHMGPKQHPEDPIGHPIMHLSGVKHATGEAIYCDDMPPVDQELFLTFVTSSRAHAKIVSIDLSEALSMPGVVDVITAEHLSDVNSFCFFTEAEEFLATDKVFCVGQLVCAVLADSEVQAKQAAKQVKIVYQDLEPLILTIKEAIQHNSFFEPERKLEYGNVDEAFKVVDQILEGEIHMGGQEHFYMETQSMLVVPKGEDQEMDVYVSTQFPKYIQDIVASTLKLPANKVMCHVKRVGGAFGGKAFKTGVIAAVTAFAANKHGRAVRCVLERGEDMLITGGRHPYLGKYKAGFMNDGRILALDMEHYSNAGNSLDESLLVIEMGLLKMDNAYKFPNLRCRGWACRTNLPSNTAFRGFGFPQAGLITESCIMEVAAKCGLSPEKVRMINMYKEIDQTPYKQEINAKNLIQCWRECMAVSSYSLRKAAVEKFNAENYWKKKGLAMVPLKYPVGLGSRAAGQAAALVHIYLDGSVLVTHGGIEMGQGVHTKMIQVVSRELGMPISNVHLRGTSTETVPNANVSGGSVVADLNGLAVKDACQILLKRLEPIISKNPKGTWKDWAQTAFDESISLSAVGYFRGYESDINWEKGEGHPFEYFVYGAACSEVEIDCLTGDHKNIRTDIVMDVGCSINPAIDIGQIEGAFIQGMGLYTIEELNYSPQGVLHTRGPDQYKIPAICDTPTEFHISLLPPSENSNTLYSSKGLGESGVFLGCSVFFAIHDAVSAARRERGLHGPLSLNSPLTPEKIRMACEDKFTKMIPRDEPGSCVPWNVPI
- Km [5]: 323 ± 123 µM

B2: AOX1 (Homo sapiens) (protein)
chain: MDRASELLFYVNGRKVIEKNVDPETMLLPYLRKKLRLTGTKYGCGGGGCGACTVMISRYNPITKRIRHHPANACLIPICSLYGAAVTTVEGIGSTHTRIHPVQERIAKCHGTQCGFCTPGMVMSIYTLLRNHPEPTLDQLTDALGGNLCRCTGYRPIIDACKTFCKTSGCCQSKENGVCCLDQGINGLPEFEEGSKTSPKLFAEEEFLPLDPTQELIFPPELMIMAEKQSQRTRVFGSERMMWFSPVTLKELLEFKFKYPQAPVIMGNTSVGPEVKFKGVFHPVIISPDRIEELSVVNHAYNGLTLGAGLSLAQVKDILADVVQKLPEEKTQMYHALLKHLGTLAGSQIRNMASLGGHIISRHPDSDLNPILAVGNCTLNLLSKEGKRQIPLNEQFLSKCPNADLKPQEILVSVNIPYSRKWEFVSAFRQAQRQENALAIVNSGMRVFFGEGDGIIRELCISYGGVGPATICAKNSCQKLIGRHWNEQMLDIACRLILNEVSLLGSAPGGKVEFKRTLIISFLFKFYLEVSQILKKMDPVHYPSLADKYESALEDLHSKHHCSTLKYQNIGPKQHPEDPIGHPIMHLSGVKHATGEAIYCDDMPLVDQELFLTFVTSSRAHAKIVSIDLSEALSMPGVVDIMTAEHLSDVNSFCFFTEAEKFLATDKVFCVGQLVCAVLADSEVQAKRAAKRVKIVYQDLEPLILTIEESIQHNSSFKPERKLEYGNVDEAFKVVDQILEGEIHMGGQEHFYMETQSMLVVPKGEDQEMDVYVSTQFPKYIQDIVASTLKLPANKVMCHVRRVGGAFGGKVLKTGIIAAVTAFAANKHGRAVRCVLERGEDMLITGGRHPYLGKYKAGFMNDGRILALDMEHYSNAGASLDESLFVIEMGLLKMDNAYKFPNLRCRGWACRTNLPSNTAFRGFGFPQAALITESCITEVAAKCGLSPEKVRIINMYKEIDQTPYKQEINAKNLIQCWRECMAMSSYSLRKVAVEKFNAENYWKKKGLAMVPLKFPVGLGSRAAGQAAALVHIYLDGSVLVTHGGIEMGQGVHTKMIQVVSRELRMPMSNVHLRGTSTETVPNANISGGSVVADLNGLAVKDACQTLLKRLEPIISKNPKGTWKDWAQTAFDESINLSAVGYFRGYESDMNWEKGEGQPFEYFVYGAACSEVEIDCLTGDHKNIRTDIVMDVGCSINPAIDIGQIEGAFIQGMGLYTIEELNYSPQGILHTRGPDQYKIPAICDMPTELHIALLPPSQNSNTLYSSKGLGESGVFLGCSVFFAIHDAVSAARQERGLHGPLTLNSPLTPEKIRMACEDKFTKMIPRDEPGSYVPWNVPI
- Km [5]: 2800 µM
- Vmax [5]: 40 to 70 pmol/min/mg
- kcat/Km [5]: 15 M⁻¹ s⁻¹

B3: aldehyde oxidase (AOX) (Homo sapiens) (protein)
chain: MDRASELLFYVNGRKVIEKNVDPETMLLPYLRKKLRLTGTKYGCGGGGCGACTVMISRYNPITKRIRHHPANACLIPICSLYGAAVTTVEGIGSTHTRIHPVQERIAKCHGTQCGFCTPGMVMSIYTLLRNHPEPTLDQLTDALGGNLCRCTGYRPIIDACKTFCKTSGCCQSKENGVCCLDQGINGLPEFEEGSKTSPKLFAEEEFLPLDPTQELIFPPELMIMAEKQSQRTRVFGSERMMWFSPVTLKELLEFKFKYPQAPVIMGNTSVGPEVKFKGVFHPVIISPDRIEELSVVNHAYNGLTLGAGLSLAQVKDILADVVQKLPEEKTQMYHALLKHLGTLAGSQIRNMASLGGHIISRHPDSDLNPILAVGNCTLNLLSKEGKRQIPLNEQFLSKCPNADLKPQEILVSVNIPYSRKWEFVSAFRQAQRQENALAIVNSGMRVFFGEGDGIIRELCISYGGVGPATICAKNSCQKLIGRHWNEQMLDIACRLILNEVSLLGSAPGGKVEFKRTLIISFLFKFYLEVSQILKKMDPVHYPSLADKYESALEDLHSKHHCSTLKYQNIGPKQHPEDPIGHPIMHLSGVKHATGEAIYCDDMPLVDQELFLTFVTSSRAHAKIVSIDLSEALSMPGVVDIMTAEHLSDVNSFCFFTEAEKFLATDKVFCVGQLVCAVLADSEVQAKRAAKRVKIVYQDLEPLILTIEESIQHNSSFKPERKLEYGNVDEAFKVVDQILEGEIHMGGQEHFYMETQSMLVVPKGEDQEMDVYVSTQFPKYIQDIVASTLKLPANKVMCHVRRVGGAFGGKVLKTGIIAAVTAFAANKHGRAVRCVLERGEDMLITGGRHPYLGKYKAGFMNDGRILALDMEHYSNAGASLDESLFVIEMGLLKMDNAYKFPNLRCRGWACRTNLPSNTAFRGFGFPQAALITESCITEVAAKCGLSPEKVRIINMYKEIDQTPYKQEINAKNLIQCWRECMAMSSYSLRKVAVEKFNAENYWKKKGLAMVPLKFPVGLGSRAAGQAAALVHIYLDGSVLVTHGGIEMGQGVHTKMIQVVSRELRMPMSNVHLRGTSTETVPNANISGGSVVADLNGLAVKDACQTLLKRLEPIISKNPKGTWKDWAQTAFDESINLSAVGYFRGYESDMNWEKGEGQPFEYFVYGAACSEVEIDCLTGDHKNIRTDIVMDVGCSINPAIDIGQIEGAFIQGMGLYTIEELNYSPQGILHTRGPDQYKIPAICDMPTELHIALLPPSQNSNTLYSSKGLGESGVFLGCSVFFAIHDAVSAARQERGLHGPLTLNSPLTPEKIRMACEDKFTKMIPRDEPGSYVPWNVPI
- kcat [6]: 4.37 s⁻¹
